Tests used:
mouse TP receptor [1] = molecular target: T1, mouse TP receptor (Mus musculus, UniProt P30987); experiment: IP1 functional HTRF assay, mouse TP receptor; format: cell-based; details: I-BOP stimulated IP1
T1 construct: expressed in transfected cells
T1 sequence (P30987 1-341): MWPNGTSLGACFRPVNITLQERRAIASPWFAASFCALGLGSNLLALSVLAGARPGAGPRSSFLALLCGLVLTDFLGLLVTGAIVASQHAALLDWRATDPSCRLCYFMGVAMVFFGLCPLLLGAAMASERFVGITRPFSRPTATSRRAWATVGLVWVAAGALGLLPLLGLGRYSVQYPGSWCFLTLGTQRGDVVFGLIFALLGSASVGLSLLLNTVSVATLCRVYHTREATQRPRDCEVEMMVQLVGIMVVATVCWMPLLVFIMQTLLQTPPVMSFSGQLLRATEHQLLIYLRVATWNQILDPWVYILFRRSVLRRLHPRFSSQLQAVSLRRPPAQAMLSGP
Description: (§1) Functional activity of the TP receptor was measured by homogenous time-resolved fluorescence (HTRF) (IP-One Tb, Cisbio, Bedford, Mass., USA). QBI-HEK 293A (MP Biomedicals, Solon, Ohio, USA) cells were transfected with human TP receptor or mouse TP receptor cDNAs cloned into the pcDNA5/TO vector (Invitrogen, Carlsbad, Calif., USA), and stable transformants were selected. Cells were plated at 200,000 cells/mL in DMEM containing 4.5 g/L glucose (Invitrogen, Carlsbad, Calif., USA), 10% fetal bovine serum, L-glutamine, and penicillin/streptomycin into 384-well plates (Grenier Bio-One, Monroe, N.C., USA), followed by incubation for 16 hours at 37° C. with 5% CO2. Culture media was removed and cells were then incubated for 15 min at 37° C. with 5% CO2 in 10 mM Hepes, 1 mM CaCl2, 0.4 mM MgCl2, 4.2 mM KCl, 146 mM NaCl, 5.5 mM glucose, 50 mM LiCl, pH 7.4 (stimulation buffer) containing varying concentrations of test antagonist. I-BOP ([1S-[1α,2α(Z),3β(1E,3S*),4α]]-7-[3-[3-hydroxy-4-(4-iodophenoxy)-1-butenyl]-7-oxabicyclo[2.2.1]hept-2-yl]-5-heptenoic acid) (Cayman Chemicals, Ann Arbor, Mich., USA) was added at a final concentration of 1.6 nM in stimulation buffer and incubated for 1 hour at 37° C. with 5% CO2. […] Plates were then read on a Spectramax M5 microplate reader (Molecular Devices, Sunnyvale, Calif., USA). Data are expressed as the ratio of 665 nm/620 nm fluorescence. […]

human TP receptor [2] = molecular target: T2, human TP receptor (Homo sapiens, UniProt P21731); experiment: Radioligand binding assay (3H-SQ29,548), human TP receptor; details: hTP receptor
T2 construct: expressed in transfected cells
T2 sequence (P21731 1-343): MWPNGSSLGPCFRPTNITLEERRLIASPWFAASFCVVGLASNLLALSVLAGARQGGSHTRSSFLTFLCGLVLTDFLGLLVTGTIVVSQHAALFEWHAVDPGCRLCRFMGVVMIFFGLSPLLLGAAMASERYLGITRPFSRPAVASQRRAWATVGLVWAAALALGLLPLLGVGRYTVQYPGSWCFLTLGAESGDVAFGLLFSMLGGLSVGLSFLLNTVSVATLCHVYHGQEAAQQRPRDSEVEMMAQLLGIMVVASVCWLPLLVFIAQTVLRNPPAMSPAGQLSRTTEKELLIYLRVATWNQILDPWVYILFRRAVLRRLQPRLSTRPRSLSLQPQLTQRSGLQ
Description: (§2) QBI-HEK 293A cells expressing human or mouse TxA2 (TP) receptor were grown as described previously and harvested in phosphate-buffered saline with 1 mM EDTA. The cell pellet was homogenized in a glass homogenizer in 20 mM Hepes, 1 mM EGTA, 0.5 mM DTT with protease inhibitor cocktail. The homogenate was initially centrifuged at 1000×g for 10 minutes at 8° C. to remove cell debris. The homogenate was then centrifuged in a Beckman L8-70M ultracentrifuge (Beckman-Coulter, Brea, Calif., USA) at 21,000 rpm for 30 minutes at 4° C., and the pellet was resuspended in 20 mM Hepes, 1 mM EGTA, 100 mM NaCl. Membrane preparations were normalized to protein level as determined with a BCA assay (ThermoFisher, Rockland, Ill.) and stored at −80° C.
(§3) Test antagonists were incubated at 10 different concentrations with 25 μg membrane and 25 nM ^3H-SQ29,548 (PerkinElmer, Waltham, Mass., USA) in 50 mM Tris, 4 mM CaCl2, 0.1% ascorbic acid pH 7.5 for 2 hours at 25° C. in 96-well polystyrene plates. Separation of bound from free radioligand was accomplished by rapid vacuum filtration onto 96-well GF/B filter plates (PerkinElmer, Waltham, Mass., USA). Filters were washed 8 times in 50 mM Tris, pH 6.9 and allowed to dry for 16 hours, Plates were sealed and filters dissolved in 50 μL Betaplate Scintillation fluid (PerkinElmer, Waltham, Mass., USA) and read on a scintillation counter. Data are presented as percent total binding as calculated by a minimum of 3 wells containing membrane and ^3H-SQ29,548 without antagonist.
(§4) Equilibrium dissociation constants (Kd), IC50, and Schild regression analyses was performed with GraphPad Prism software (GraphPad Software Inc., La Jolla, Calif., USA).
(§5) To facilitate the characterization of the new compounds, cell-based TP receptor functional assays were optimized. HEK293 clones have been produced that stably express the human (hTP) or mouse (mTP) TP receptor (a isoform), and treatment of these clones with I-BOP ([1S-[1α,2α(Z),3β(1E,3S*),4α]]-7-[3-[3-hydroxy-4-(4-iodophenoxy)-1-butenyl]-7-oxabicyclo[2.2.1]hept-2-yl]-5-heptenoic acid) results in increased production of inositol triphosphate (IP3) (Knezevic, et al., 1993, Blood 82:A156; Shenker, et al., 1991, J Biol Chem 266:9309-9313; Huang, et al., 2004, Cell Signal 16:521-533) which can be quantified by measuring the breakdown product, inositol monophosphates (IP1), using a commercial time-resolved fluorescence assay. […] A radioligand binding assay was also developed to allow for the determination of binding affinities of compounds at the hTP and mTP receptors.

[3] = Pro-drug study: plasma levels of compound and carboxylic acid hydrolysis product (51280) by LC-MS/MS; format: in vivo; details: female mice, 5 mg/kg, 1 h after injection
Description: Ester and amide examples can serve as pro-drugs to release the potent carboxylic acid TP receptor antagonist CNDR-51280. Compounds in were administered at 5 mg/kg to female mice, and levels of the compound and the carboxylic acid hydrolysis product (51280) were evaluated by LC-MS/MS 1 h after injection (Table 3).

human TP receptor [4] = molecular target: T2, human TP receptor; experiment: IP1 functional HTRF assay, human TP receptor; format: cell-based; details: I-BOP stimulated IP1
Description: as §1

mouse TP receptor [5] = molecular target: T1, mouse TP receptor; experiment: Radioligand binding assay (3H-SQ29,548), mouse TP receptor; details: mTP receptor
Description: as §2, §3, §4, §5

O=C(O)CCc1cccc2c1CCC(NS(=O)(=O)c1ccc(Cl)cc1)C2 (centres unmarked) [Compound 51280, 3-(6-(4-Chloroplienyistilfonamido)-5,6,7,8-tetrahydronaplithalen-1-yl)propanaic acid]
antagonist activity (mouse TP receptor [1]): potent antagonist
affinity for TP receptor (human TP receptor [2]): high affinity
Plasma (compound) [3]: 10376 (+/− 3480) nM
antagonist activity (human TP receptor [4]): potent antagonist
affinity for TP receptor (mouse TP receptor [5]): high affinity

From patent publication US20130190370A1, “Novel Tetrahydronaphalene Antagonists to the Thromboxane A2 (TP) Receptor” (The Trustees of the University of Pennsylvania, priority 2010, published 2013)
